Measurements from PubChem BioAssay (NCI).
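Five compound concentrations were applied to cells in 96-well plates for 48 hours; endpoints were derived by simple linear interpolation of the resulting dose-response curve. The concentration for 50% growth inhibition is given as GI50. At the TGI there is no net growth.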

Legend:
Assay in all cases: DTP human tumour cell line panel, 48 h
786-0 renal = test system: 786-0 renal
KM12 colon = test system: KM12 colon
LOX IMVI melanoma = test system: LOX IMVI melanoma
SN12C renal = test system: SN12C renal
OVCAR-3 ovarian = test system: OVCAR-3 ovarian
DU-145 prostate = test system: DU-145 prostate
MOLT-4 leukemia = test system: MOLT-4 leukemia
NCI/ADR-RES ovarian = test system: NCI/ADR-RES ovarian
HS 578T breast = test system: HS 578T breast
TK-10 renal = test system: TK-10 renal
OVCAR-5 ovarian = test system: OVCAR-5 ovarian
T-47D breast = test system: T-47D breast
OVCAR-8 ovarian = test system: OVCAR-8 ovarian
NCI-H226 lung = test system: NCI-H226 lung
UACC-62 melanoma = test system: UACC-62 melanoma
MDA-MB-231 breast = test system: MDA-MB-231 breast
UACC-257 melanoma = test system: UACC-257 melanoma
MDA-MB-435 = test system: MDA-MB-435
HL-60(TB) leukemia = test system: HL-60(TB) leukemia
SK-MEL-5 melanoma = test system: SK-MEL-5 melanoma
SK-MEL-28 melanoma = test system: SK-MEL-28 melanoma
MCF7 breast = test system: MCF7 breast
SF-295 CNS = test system: SF-295 CNS
HCT-15 colon = test system: HCT-15 colon
BT-549 breast = test system: BT-549 breast
HCT-116 colon = test system: HCT-116 colon
CAKI-1 renal = test system: CAKI-1 renal
HCC-2998 colon = test system: HCC-2998 colon
SR leukemia = test system: SR leukemia
A549 NSCLC = test system: A549 NSCLC
RPMI-8226 leukemia = test system: RPMI-8226 leukemia
SNB-75 CNS = test system: SNB-75 CNS
NCI-H522 lung = test system: NCI-H522 lung
ACHN renal = test system: ACHN renal
IGROV1 ovarian = test system: IGROV1 ovarian
SNB-19 CNS = test system: SNB-19 CNS
SK-OV-3 ovarian = test system: SK-OV-3 ovarian
HOP-62 NSCLC = test system: HOP-62 NSCLC
COLO 205 colon = test system: COLO 205 colon
A498 renal = test system: A498 renal
K-562 leukemia = test system: K-562 leukemia
CCRF-CEM leukemia = test system: CCRF-CEM leukemia
NCI-H460 lung = test system: NCI-H460 lung
SF-268 CNS = test system: SF-268 CNS
HT29 colon = test system: HT29 colon
U251 CNS = test system: U251 CNS
NCI-H23 lung = test system: NCI-H23 lung
SK-MEL-2 melanoma = test system: SK-MEL-2 melanoma
OVCAR-4 ovarian = test system: OVCAR-4 ovarian
SF-539 CNS = test system: SF-539 CNS
M14 melanoma = test system: M14 melanoma
PC-3 prostate = test system: PC-3 prostate
HOP-92 NSCLC = test system: HOP-92 NSCLC
EKVX NSCLC = test system: EKVX NSCLC
SW-620 colon = test system: SW-620 colon
RXF 393 renal = test system: RXF 393 renal
UO-31 renal = test system: UO-31 renal
MALME-3M melanoma = test system: MALME-3M melanoma
MDA-N = test system: MDA-N

Cc1cccc2c1NC(=O)[C@@H](NC(=O)[C@H](CCC(F)(F)F)[C@H](CCC(F)(F)F)C(N)=O)N=C2c1cccc(F)c1
GI50 (786-0 renal): 20.6 µM | TGI (786-0 renal): 56.3 µM | GI50 (KM12 colon): > 100 µM | TGI (KM12 colon): > 100 µM | GI50 (LOX IMVI melanoma): 64.8 µM | TGI (LOX IMVI melanoma): > 100 µM | GI50 (SN12C renal): 28.4 µM | TGI (SN12C renal): > 100 µM | GI50 (OVCAR-3 ovarian): 33.3 µM | TGI (OVCAR-3 ovarian): > 100 µM | GI50 (DU-145 prostate): 71.4 µM | TGI (DU-145 prostate): > 100 µM | GI50 (MOLT-4 leukemia): > 100 µM | TGI (MOLT-4 leukemia): > 100 µM | GI50 (NCI/ADR-RES ovarian): 26.3 µM | TGI (NCI/ADR-RES ovarian): > 100 µM | GI50 (HS 578T breast): 20.4 µM | TGI (HS 578T breast): 64 µM | GI50 (TK-10 renal): 34.7 µM | TGI (TK-10 renal): > 100 µM | GI50 (OVCAR-5 ovarian): 86.4 µM | TGI (OVCAR-5 ovarian): > 100 µM | GI50 (T-47D breast): 34.5 µM | TGI (T-47D breast): > 100 µM | GI50 (OVCAR-8 ovarian): 30.5 µM | TGI (OVCAR-8 ovarian): > 100 µM | GI50 (NCI-H226 lung): 17 µM | TGI (NCI-H226 lung): 73.4 µM | GI50 (UACC-62 melanoma): 28.2 µM | TGI (UACC-62 melanoma): > 100 µM | GI50 (MDA-MB-231 breast): 18.2 µM | TGI (MDA-MB-231 breast): 59.1 µM | GI50 (UACC-257 melanoma): 48.6 µM | TGI (UACC-257 melanoma): > 100 µM | GI50 (MDA-MB-435): > 100 µM | TGI (MDA-MB-435): > 100 µM | GI50 (HL-60(TB) leukemia): > 100 µM | TGI (HL-60(TB) leukemia): > 100 µM | GI50 (SK-MEL-5 melanoma): > 100 µM | TGI (SK-MEL-5 melanoma): > 100 µM | GI50 (SK-MEL-28 melanoma): > 100 µM | TGI (SK-MEL-28 melanoma): > 100 µM | GI50 (MCF7 breast): 24.1 µM | TGI (MCF7 breast): > 100 µM | GI50 (SF-295 CNS): 25.8 µM | TGI (SF-295 CNS): > 100 µM | GI50 (HCT-15 colon): > 100 µM | TGI (HCT-15 colon): > 100 µM | GI50 (BT-549 breast): 16.2 µM | TGI (BT-549 breast): 66.1 µM | GI50 (HCT-116 colon): 51.2 µM | TGI (HCT-116 colon): > 100 µM | GI50 (CAKI-1 renal): > 100 µM | TGI (CAKI-1 renal): > 100 µM | GI50 (HCC-2998 colon): 60 µM | TGI (HCC-2998 colon): > 100 µM | GI50 (SR leukemia): 49.4 µM | TGI (SR leukemia): > 100 µM | GI50 (A549 NSCLC): 36.6 µM | TGI (A549 NSCLC): > 100 µM | GI50 (RPMI-8226 leukemia): > 100 µM | TGI (RPMI-8226 leukemia): > 100 µM | GI50 (SNB-75 CNS): 10.8 µM | TGI (SNB-75 CNS): 32.1 µM | GI50 (NCI-H522 lung): 16.6 µM | TGI (NCI-H522 lung): 53.7 µM | GI50 (ACHN renal): 45.1 µM | TGI (ACHN renal): > 100 µM | GI50 (IGROV1 ovarian): 27.7 µM | TGI (IGROV1 ovarian): > 100 µM | GI50 (SNB-19 CNS): 17 µM | TGI (SNB-19 CNS): 41 µM | GI50 (SK-OV-3 ovarian): 28.7 µM | TGI (SK-OV-3 ovarian): 91.3 µM | GI50 (HOP-62 NSCLC): 25.8 µM | TGI (HOP-62 NSCLC): 92.1 µM | GI50 (COLO 205 colon): > 100 µM | TGI (COLO 205 colon): > 100 µM | GI50 (A498 renal): 36.6 µM | TGI (A498 renal): > 100 µM | GI50 (K-562 leukemia): > 100 µM | TGI (K-562 leukemia): > 100 µM | GI50 (CCRF-CEM leukemia): > 100 µM | TGI (CCRF-CEM leukemia): > 100 µM | GI50 (NCI-H460 lung): 31.3 µM | TGI (NCI-H460 lung): > 100 µM | GI50 (SF-268 CNS): 23.2 µM | TGI (SF-268 CNS): 70 µM | GI50 (HT29 colon): > 100 µM | TGI (HT29 colon): > 100 µM | GI50 (U251 CNS): 20.2 µM | TGI (U251 CNS): 59.2 µM | GI50 (NCI-H23 lung): 30.5 µM | TGI (NCI-H23 lung): > 100 µM | GI50 (SK-MEL-2 melanoma): 41.5 µM | TGI (SK-MEL-2 melanoma): > 100 µM | GI50 (OVCAR-4 ovarian): 22.4 µM | TGI (OVCAR-4 ovarian): 61.9 µM | GI50 (SF-539 CNS): 18.4 µM | TGI (SF-539 CNS): 41.8 µM | GI50 (M14 melanoma): 73.2 µM | TGI (M14 melanoma): > 100 µM | GI50 (PC-3 prostate): 39.5 µM | TGI (PC-3 prostate): > 100 µM | GI50 (HOP-92 NSCLC): 14.4 µM | TGI (HOP-92 NSCLC): 57.1 µM | GI50 (EKVX NSCLC): 40.5 µM | TGI (EKVX NSCLC): > 100 µM | GI50 (SW-620 colon): > 100 µM | TGI (SW-620 colon): > 100 µM | GI50 (RXF 393 renal): 13.5 µM | TGI (RXF 393 renal): 40.4 µM | GI50 (UO-31 renal): > 100 µM | TGI (UO-31 renal): > 100 µM | GI50 (MALME-3M melanoma): 50 µM | TGI (MALME-3M melanoma): > 100 µM

COc1ccc(C(=O)/C=C/c2ccc(OCC(=O)N3CCN(c4ccccc4)CC3)cc2)cc1OC
TGI (MDA-N): > 10 µM | TGI (786-0 renal): > 10 µM | TGI (KM12 colon): > 10 µM | TGI (SN12C renal): > 10 µM | TGI (DU-145 prostate): > 10 µM | TGI (MOLT-4 leukemia): 7.06 µM | TGI (TK-10 renal): > 10 µM | TGI (T-47D breast): > 10 µM | TGI (OVCAR-8 ovarian): > 10 µM | TGI (UACC-62 melanoma): > 10 µM | TGI (MDA-MB-231 breast): > 10 µM | TGI (UACC-257 melanoma): > 10 µM | TGI (HL-60(TB) leukemia): > 10 µM | TGI (SK-MEL-5 melanoma): > 10 µM | TGI (SK-MEL-28 melanoma): > 10 µM | TGI (MCF7 breast): > 10 µM | TGI (SF-295 CNS): > 10 µM | TGI (HCT-15 colon): > 10 µM | TGI (CAKI-1 renal): > 10 µM | TGI (HCC-2998 colon): > 10 µM | TGI (SR leukemia): 6.47 µM | TGI (A549 NSCLC): > 10 µM | TGI (RPMI-8226 leukemia): > 10 µM | TGI (SNB-75 CNS): 8.75 µM | TGI (IGROV1 ovarian): > 10 µM | TGI (SK-OV-3 ovarian): > 10 µM | TGI (HOP-62 NSCLC): > 10 µM | TGI (COLO 205 colon): > 10 µM | TGI (K-562 leukemia): > 10 µM | TGI (CCRF-CEM leukemia): 7.21 µM | TGI (SF-268 CNS): > 10 µM | TGI (HT29 colon): > 10 µM | TGI (NCI-H23 lung): 5.55 µM | TGI (M14 melanoma): > 10 µM | TGI (PC-3 prostate): > 10 µM | TGI (EKVX NSCLC): > 10 µM | TGI (SW-620 colon): > 10 µM | TGI (RXF 393 renal): 3.86 µM | TGI (MALME-3M melanoma): > 10 µM
